A word on the IC50: it is the concentration needed to halve the response being measured.

The target in this assay is PIK3CA (human) (UniProt P42336). Briefly: Cell-Based Assay. The following applies: bt474.
Sequence of PIK3CA (human) (P42336 whole entry, looked up): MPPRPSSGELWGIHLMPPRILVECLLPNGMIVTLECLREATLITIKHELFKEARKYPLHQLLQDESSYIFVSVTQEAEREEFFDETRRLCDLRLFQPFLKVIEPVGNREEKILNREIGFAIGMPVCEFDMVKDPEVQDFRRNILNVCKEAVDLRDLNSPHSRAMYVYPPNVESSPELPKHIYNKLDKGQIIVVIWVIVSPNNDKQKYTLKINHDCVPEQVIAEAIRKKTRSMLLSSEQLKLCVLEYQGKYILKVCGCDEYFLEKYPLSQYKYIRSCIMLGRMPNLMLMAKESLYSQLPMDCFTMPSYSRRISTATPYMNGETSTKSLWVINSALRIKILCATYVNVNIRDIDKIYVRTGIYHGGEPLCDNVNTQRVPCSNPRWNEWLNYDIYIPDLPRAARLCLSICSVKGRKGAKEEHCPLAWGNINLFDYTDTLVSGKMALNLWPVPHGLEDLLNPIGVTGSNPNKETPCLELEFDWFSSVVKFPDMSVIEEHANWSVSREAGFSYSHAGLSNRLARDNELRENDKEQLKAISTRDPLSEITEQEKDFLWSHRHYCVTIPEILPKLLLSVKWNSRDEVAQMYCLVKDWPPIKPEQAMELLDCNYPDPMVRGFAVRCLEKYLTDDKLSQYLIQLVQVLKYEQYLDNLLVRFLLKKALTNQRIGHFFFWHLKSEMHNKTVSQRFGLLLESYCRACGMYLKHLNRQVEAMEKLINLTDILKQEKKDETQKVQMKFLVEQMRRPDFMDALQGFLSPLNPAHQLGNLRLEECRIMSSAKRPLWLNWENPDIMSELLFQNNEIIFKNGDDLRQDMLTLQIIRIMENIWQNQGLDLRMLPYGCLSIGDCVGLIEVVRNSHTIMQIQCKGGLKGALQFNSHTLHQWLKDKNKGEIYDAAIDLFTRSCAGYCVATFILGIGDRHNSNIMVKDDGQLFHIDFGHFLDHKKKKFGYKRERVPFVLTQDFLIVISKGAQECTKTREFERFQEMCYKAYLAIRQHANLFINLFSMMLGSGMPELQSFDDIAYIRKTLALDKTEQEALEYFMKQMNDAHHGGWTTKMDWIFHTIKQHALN
`Cn1c(=O)n([C@H]2CCCOC2)c2c3cc(-c4ccc(OCCCN5CCC5)nc4)ccc3ncc21` showed a half-maximal inhibitory concentration (IC50) of 0.499 µM. Then `CO[C@H]1C[C@@H](n2c(=O)n(C)c3cnc4cc(F)c(-c5ccc(OCCCN6CCCC6)nc5)cc4c32)C1`, with > 29.8 µM; and `Cn1c(=O)n(C2COC2)c2c3cc(-c4ccc(OCCCN5CCCCC5)nc4)ccc3ncc21`, with > 26.3 µM; and `CN(C)CCCOc1ccc(-c2ccc3ncc4c(c3c2)n(C2COC2)c(=O)n4C)cn1`, with 6.84 µM.

In the case of `O=c1[nH]c2cnc3ccc(-c4ccc(OCCCN5CCCCC5)nc4)cc3c2n1C1CCOCC1`, the IC50 is > 25 µM.

Take `Cn1c(=O)n(C2CCC2)c2c3cc(-c4ccc(OCCCN5CCCC5)nc4)ccc3ncc21`: the half-maximal inhibitory concentration (IC50) is > 9.56 µM. In the case of `Cn1c(=O)n([C@H]2CCCOC2)c2c3cc(-c4ccc(OCCCN5CCCCC5)nc4)ccc3ncc21`, the IC50 is > 10.9 µM. Then `CO[C@H]1C[C@@H](n2c(=O)n(C)c3cnc4cc(F)c(-c5ccc(OCCCN(C)C)nc5F)cc4c32)C1`, with > 28 µM; and `Cn1c(=O)n([C@H]2CCCOC2)c2c3cc(-c4ccc(OCCCN5CCCC5)nc4F)ccc3ncc21`, with > 16.2 µM. As for `CO[C@H]1C[C@@H](n2c(=O)n(C)c3cnc4cc(F)c(-c5ccc(OCCCN(C)C)nc5)cc4c32)C1`, the concentration for half-maximal inhibition (IC50) was > 30 µM.

Regarding `Cn1c(=O)n(C2CCC2)c2c3cc(-c4ccc(OCCCN5CCCCC5)nc4)ccc3ncc21`, the IC50 is > 14.3 µM. The result for `CN(C)CCCOc1ccc(-c2ccc3ncc4c(c3c2)n([C@H]2C[C@@H](O)C2)c(=O)n4C)cn1` reads 1.08 µM; that for `CN(C)CCCOc1ccc(-c2cc3c(cc2F)ncc2c3n(C3COC3)c(=O)n2C)cn1`, > 29.1 µM; that for `CN(C)CCCOc1ccc(-c2cc3c(cc2F)ncc2c3n([C@@H]3CCCOC3)c(=O)n2C)cn1`, 10 µM. Then `CN(C)CCCOc1ccc(-c2cc3c(cc2F)ncc2c3n([C@H]3CCCOC3)c(=O)n2C)cn1`, with > 20.2 µM; and `Cn1c(=O)n([C@H]2CCCOC2)c2c3cc(-c4ccc(OCCCN5CCCC5)nc4)c(F)cc3ncc21`, with > 30 µM. The result for `Cn1c(=O)n(C2CCOCC2)c2c3cc(-c4ccc(OCCCN5CCCCC5)nc4)c(F)cc3ncc21` reads > 16.7 µM; that for `Cn1c(=O)n([C@H]2CCCOC2)c2c3cc(-c4ccc(OCCCN5CCCCC5)nc4)c(F)cc3ncc21`, > 23.5 µM. As to `CN(C)CCCOc1ccc(-c2cc3c(cc2F)ncc2c3n([C@H]3CCCOC3)c(=O)n2C)c(F)n1`, the IC50 was > 9.4 µM.

(Values after the Kinase Knowledgebase extract (Sharma et al. 2016).)
